Assay results as given in ChEMBL document CHEMBL1133244, “Solid-phase synthesis of an arylsulfone hydroxamate library” (Bioorg Med Chem Lett, 2000).
pIC50: −log10 of the molar value.

Columns and labels:
Stromelysin-1 = Stromelysin-1 (Homo sapiens, UniProt P08254); test: Inhibitory activity against recombinant matrix metalloprotease-3
[1] = target: 72 kDa type IV collagenase (Homo sapiens, UniProt P08253); test: Inhibitory activity against recombinant matrix metalloprotease-2
Interstitial collagenase = target: T1, Interstitial collagenase (Homo sapiens, UniProt P03956); test: Inhibitory activity against recombinant matrix metalloprotease-1
T1 sequence (P03956 whole entry): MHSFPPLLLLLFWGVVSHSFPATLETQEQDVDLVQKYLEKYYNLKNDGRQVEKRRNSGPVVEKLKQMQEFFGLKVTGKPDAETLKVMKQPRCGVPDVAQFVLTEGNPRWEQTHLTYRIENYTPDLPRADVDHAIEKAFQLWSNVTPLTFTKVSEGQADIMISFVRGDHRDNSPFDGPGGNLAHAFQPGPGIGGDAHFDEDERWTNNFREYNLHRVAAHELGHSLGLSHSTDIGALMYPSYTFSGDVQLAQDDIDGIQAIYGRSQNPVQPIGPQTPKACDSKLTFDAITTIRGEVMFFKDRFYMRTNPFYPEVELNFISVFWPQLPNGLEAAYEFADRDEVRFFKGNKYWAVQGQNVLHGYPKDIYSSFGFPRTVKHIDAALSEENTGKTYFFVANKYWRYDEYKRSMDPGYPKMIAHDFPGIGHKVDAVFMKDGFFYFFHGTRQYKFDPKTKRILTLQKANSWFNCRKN

[2] = target: Phosphodiesterase 4 (Cavia porcellus); test: Phosphodiesterase 4 inhibitory activity measured against guinea pig macrophage homogenate

Chain of 72 kDa type IV collagenase (P08253 whole entry): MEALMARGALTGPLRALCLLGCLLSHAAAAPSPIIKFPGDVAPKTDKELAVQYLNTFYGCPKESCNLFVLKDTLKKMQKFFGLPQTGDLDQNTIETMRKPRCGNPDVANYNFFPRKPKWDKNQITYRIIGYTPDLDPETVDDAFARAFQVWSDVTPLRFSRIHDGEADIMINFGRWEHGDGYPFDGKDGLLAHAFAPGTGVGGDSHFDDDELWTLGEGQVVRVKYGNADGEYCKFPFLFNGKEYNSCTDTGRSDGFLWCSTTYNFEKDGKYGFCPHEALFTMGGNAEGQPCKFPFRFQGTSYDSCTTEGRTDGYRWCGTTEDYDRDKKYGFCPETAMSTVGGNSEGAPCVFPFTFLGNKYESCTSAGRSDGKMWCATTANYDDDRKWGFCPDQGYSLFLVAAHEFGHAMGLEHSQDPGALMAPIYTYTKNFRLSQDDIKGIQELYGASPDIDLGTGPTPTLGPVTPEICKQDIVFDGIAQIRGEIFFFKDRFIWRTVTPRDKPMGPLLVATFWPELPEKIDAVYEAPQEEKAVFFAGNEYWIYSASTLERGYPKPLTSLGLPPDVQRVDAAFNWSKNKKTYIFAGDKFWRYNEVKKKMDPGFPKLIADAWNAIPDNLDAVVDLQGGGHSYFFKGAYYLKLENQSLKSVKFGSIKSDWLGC
Chain of Stromelysin-1 (P08254 whole entry): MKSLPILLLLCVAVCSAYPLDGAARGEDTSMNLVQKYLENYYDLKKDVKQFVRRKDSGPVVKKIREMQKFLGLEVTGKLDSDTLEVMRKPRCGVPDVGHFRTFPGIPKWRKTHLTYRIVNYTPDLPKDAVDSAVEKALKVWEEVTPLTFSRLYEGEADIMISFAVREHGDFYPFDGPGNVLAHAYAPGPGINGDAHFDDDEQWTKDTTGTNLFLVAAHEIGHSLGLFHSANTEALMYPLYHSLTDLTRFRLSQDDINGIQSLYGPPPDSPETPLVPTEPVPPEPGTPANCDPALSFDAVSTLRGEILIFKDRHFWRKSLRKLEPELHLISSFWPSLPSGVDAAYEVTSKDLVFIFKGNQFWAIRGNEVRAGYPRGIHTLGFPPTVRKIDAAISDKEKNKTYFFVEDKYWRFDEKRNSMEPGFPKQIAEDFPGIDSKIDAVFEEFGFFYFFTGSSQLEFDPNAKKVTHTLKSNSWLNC

| Compound | pIC50 (Stromelysin-1) | pIC50 [1] | pIC50 (Interstitial collagenase) | IC50 [2] [µM] |
| --- | --- | --- | --- | --- |
| COc1ccc(S(=O)(=O)C(CC(=O)NO)CC(C)C)cc1OC (centres undefined) | < 5.00 | < 5.00 | < 5.00 | > 10 |
| COc1ccc(S(=O)(=O)C(CCc2ccc(Oc3ccccc3)cc2)CC(=O)NO)cc1OC1CCCC1 (centres undefined) | < 5.00 | < 5.00 | < 5.00 | 0.032 |
| COc1ccc(S(=O)(=O)C(CC(=O)NO)c2cccc(OCc3ccccc3)c2)cc1OC1CCCC1 (centres undefined) | < 5.00 | < 5.00 | < 5.00 | 0.089 |
| COc1ccc(S(=O)(=O)C(CC(=O)NO)CC(C)C)cc1OC1CCCC1 (centres undefined) | < 5.00 | < 5.00 | < 5.00 | 0.102 |
| COc1ccc(S(=O)(=O)C(CC(=O)NO)c2cccc(Oc3ccccc3)c2)cc1OC1CCCC1 (centres undefined) | < 5.00 | < 5.00 | < 5.00 | 0.26 |
| COc1ccc(S(=O)(=O)C(CC(=O)NO)c2ccccc2OCc2ccccc2)cc1OC1CCCC1 (centres undefined) | < 5.00 | < 5.00 | < 5.00 | 1.5 |
| COc1ccc(S(=O)(=O)C(CCCC(=O)N2CCCc3ccccc32)CC(=O)NO)cc1OC (centres undefined) | < 5.00 | < 5.00 | < 5.00 | 0.295 |
| COc1ccc(S(=O)(=O)C(CC(=O)NO)c2ccc(OCc3ccccc3)cc2)cc1OC1CCCC1 (centres undefined) | < 5.00 | < 5.00 | < 5.00 | 0.021 |
| COc1ccc(S(=O)(=O)C(CCC(=O)N2CCCc3ccccc32)CC(=O)NO)cc1OC (centres undefined) | < 5.00 | < 5.00 | < 5.00 | 0.564 |
| COc1ccc(S(=O)(=O)C(CCc2ccc(OCc3ccccc3)cc2)CC(=O)NO)cc1OC1CCCC1 (centres undefined) | < 5.00 | < 5.00 | < 5.00 | 0.063 |

Next, values leading:

| pIC50 (Stromelysin-1) | pIC50 [1] | pIC50 (Interstitial collagenase) | IC50 [2] [µM] | Compound |
| --- | --- | --- | --- | --- |
| < 5.00 | < 5.00 | < 5.00 | 0.118 | COc1ccc(S(=O)(=O)C(CCCC(=O)N(C)c2ccccc2)CC(=O)NO)cc1OC1CCCC1 (centres undefined) |
| < 5.00 | < 5.00 | < 5.00 | 1.04 | COc1ccc(S(=O)(=O)C(CCN(C)C(=O)c2ccccc2)CC(=O)NO)cc1OC1CCCC1 (centres undefined) |
| < 5.00 | < 5.00 | < 5.00 | 0.036 | COc1ccc(S(=O)(=O)C(CCCC(=O)N2CCCc3ccccc32)CC(=O)NO)cc1OC1CCCC1 (centres undefined) |
| < 5.00 | < 5.00 | < 5.00 | 0.14 | COc1ccc(S(=O)(=O)C(CCOC(=O)N(C)c2ccccc2)CC(=O)NO)cc1OC1CCCC1 (centres undefined) |
| < 5.00 | < 5.00 | < 5.00 | 0.032 | COc1ccc(S(=O)(=O)C(CCCN2C(=O)c3ccccc3C2=O)CC(=O)NO)cc1OC1CCCC1 (centres undefined) |
| < 5.00 | < 5.00 | < 5.00 | 0.031 | COc1ccc(S(=O)(=O)C(CCc2ccccc2)CC(=O)NO)cc1OC1CCCC1 (centres undefined) |
| < 5.00 | < 5.00 | < 5.00 | 0.055 | CCCC(CC(=O)NO)S(=O)(=O)c1ccc(OC)c(OC2CCCC2)c1 (centres undefined) |
| < 5.00 | < 5.00 | < 5.00 | 0.05 | COc1ccc(S(=O)(=O)C(CCC(=O)N(C)c2ccccc2)CC(=O)NO)cc1OC1CCCC1 (centres undefined) |
| < 5.00 | < 5.00 | < 5.00 | 0.46 | COc1ccc(S(=O)(=O)C(CCN(C)C(=O)OCc2ccccc2)CC(=O)NO)cc1OC1CCCC1 (centres undefined) |
| < 5.00 | < 5.00 | < 5.00 | 0.016 | COc1ccc(S(=O)(=O)C(CCC(=O)N2CCCc3ccccc32)CC(=O)NO)cc1OC1CCCC1 (centres undefined) |
| < 5.00 | < 5.00 | < 5.00 | 0.974 | COc1ccc(S(=O)(=O)C(CC(=O)NO)CN(C)C(=O)c2ccccc2)cc1OC1CCCC1 (centres undefined) |
